According to US8138220B2, “[2-(6-fluoro-1H-indol-3-ylsulfanyl)benzyl]methyl amine for the treatment of affective disorders” (H. Lundbeck A/S, priority 2006, dated 2012):

Assays:
Solubility in water = format: physicochemical; conditions: well-defined 1:1 salts, in words
Male NMRI mice = assay: Antimanic effects, sensitized amphetamine response in mice; format: in vivo, mouse; conditions: for induced locomotor activity: amphetamine-sensitised mice, amphetamine challenge 1.25 mg/kg; for baseline activity: tested doses, each alone
Procedure: (§1) In all experiments, animals were maintained on a 12:12 light-dark cycle with lights on at 06:00 h. Food and water was available ad libitum. Animals were taken to the experimental laboratory in the afternoon the day before the experiment was conducted. All drug doses are listed as mg salt pr. kg. Blood-samples were collected within 30 minutes after the testing was finalised.
Repeated intermittent administration of amphetamine causes development of a sensitised response to a subsequent amphetamine challenge. This phenomenon has been proposed to model the chronic and progressive nature of bipolar disorder.
Animals: Male NMRI mice weighing 19-21 g were supplied from Harlan, the Netherland's. The animals were housed 4 pr. cage in makrolon cages (20×35 cm) with two plastic houses and nesting material for enrichment. The animals had 5 days adaptation to the animal-facility prior to the initiation the experiment.
(§2) Equipment: Makrolon cages (20×35 cm) placed in quadrates equipped with 5×8 infrared light sources and photocells spaced by 4 cm were used to record the locomotor activity of the animals. The light beams cross the cage 1.8 cm above the bottom of the cage. Recording of a motility count required interruption of adjacent light beams, thus avoiding counts induced by stationary movements of the mice.
Experimental set-up: The animals were pre-treated with either amphetamine sulphate 2.50 mg/kg (10 ml/kg s.c.) or vehicle for 5 consecutive days. After 11+/−1 days withdrawal period the animals were injected with test-drug or vehicle injection. Lithium chloride was dissolved in distilled water and injected s.c. (6 ml/kg) in dose of 40 mg/kg (0.94 mEq/kg), 30 minutes before testing. Test compound ([2-(6-fluoro-1H-indol-3-ylsulfanyl)benzyl]methyl amine L-(+)-hydrogen tatrate) was dissolved in 10% hydroxypropyl-beta-cyclodextrin and injected s.c. in doses of 0.08 and 0.4 mg/kg 60 minutes before testing. Owing to Test compound's lower affinity to rodent 5HT2A receptor with respect to the human receptor, the tested doses of Test compound was combined with a dose of MDL 100907 ([R-(+)-a-(2,3-dimethoxyphenyl)-1-[2-(4-fluorophenylethyl)]-4-piperidinem ethanol]) that achieves full occupancy of this receptor. 30 minutes before testing the animals were placed in the activity boxes for habituation. After the habituation period the mice were injected with a low dose amphetamine challenge (1.25 mg/kg or saline, 10 ml/kg) and the locomotor activity were measured for 60 minutes. The mice were dosed after the average weight of 16 animals.

Male Wistar rats = assay: Antimanic effect, amphetamine and chlordiazepoxide induced locomotor activity in rats; format: in vivo, rat; conditions: for induced locomotor activity: amphetamine 1.2 mg/kg + chlordiazepoxide 10.0 mg/kg; for baseline activity: tested doses
Procedure: Increased locomotor activity induced by an appropriate combination of amphetamine and chlordiazepoxide is a proposed animal model of mania. The induced locomotor activity can be reversed by Lithium.
as §1
Animals: Male Wistar rats weighing 160-175 g were supplied from Harlan, the Netherlands. The animals were housed 4 pr. cage in makrolon cages (20×35 cm) with one plastic house for enrichment. The rats had 5 days adaptation to the animal facility prior to the initiation of the experiment.
as §2, with “a U-frame” for “quadrates”, “equipped longitudinally” for “equipped”, “4” for “5×8”, “photocells” for “photocells spaced by 4 cm”, “4” for “1.8”, “rat. A thin layer of standard bedding material coved the bottom of the cage.” for “mice.”
Chlordiazepoxide (10.0 mg/kg) was dissolved in 10% hydroxypropyl-beta-cyclodextrin and injected s.c. (5 ml/kg) immediately after the amphetamine injection.

Male BALB/cByJ mice = assay: Mouse marble burying; format: in vivo; conditions: mice, 0.625, 1.25 and 5 mg/kg s.c., 30 min before 30-minute test
Procedure: (§3) In all experiments, animals were maintained on a 12:12 light-dark cycle with lights on at 0600 h. Food and water were available ad libitum
For rodents, burying functions as a defensive behavior, used to lessen the intensity of a threat or the animal's vulnerability to it. Researchers have investigated defensive burying behaviour using a variety of threatening objects such as electrified prods and unpleasant tasting foods and liquids. Benign objects such as marbles and food pellets also elicit burying behaviour. Mice probably bury harmless objects because they are novel, and are therefore perceived as threatening. Acute administration of both anxiolytic and antidepressant drugs reduce the number of marbles buried in this paradigm.
Male BALB/cByJ mice (22-28 g) were housed 5/cage. Two experiments were performed. Mice received vehicle or 0.625, 1.25, or 5 mg/kg (s.c.) Test compound (see example 12). 30 minutes after injection, animals were placed individually in cages containing 20 marbles (2 rows of 10) on top of 1.5 inches of Aspen bedding. After a 30-minute test period, mice were returned to their home cages, and the number of visible marbles (less than ⅔ covered with bedding) were counted and subtracted from 20 to give number of marbles buried.

Male C57B1/6 mice = assay: Stress-induced hyperthermia; format: in vivo, mouse; conditions: chlordiazepoxide 10 mg/kg, one hour before
Procedure: as §3
The stress-induced hyperthermia (SIH) test is based upon the principle that, like other mammals, mice have a natural hyperthermic response to stress. In this paradigm, the stressor is having the rectal temperature taken. This physiological response is considered to reflect the anxiety level of the animal, and is attenuated by pretreatment with anxiolytic drugs such as benzodiazepines.
Male C57B1/6 mice (18-21 g) were housed 5/cage until 1 day before the experiment, at which time they were brought to the testing room and singly-housed. Testing was conducted over a two-day period from 9-12 am. Mice received vehicle, chlordiazepoxide (10 mg/kg), or 0.02, 0.08, or 0.32 mg/kg Test compound (s.c.). One hour later, core temperature was measured with a rectal probe (T1) and each animal was returned to its cage. Ten minutes later, a second reading was obtained (T2). The difference between the two readings (T2−T1) was calculated as the measure of stress-induced hyperthermia.

For `CC(C)(O)C(=O)O` [2-hydroxy isobutyric acid], which solubility (Solubility in water) is on record?
Its solubility is “relatively high solubility”.

Which results are given for `CNCc1ccccc1Sc1c[nH]c2cc(F)ccc12.O=C(O)C(O)C(O)C(=O)O` [Test compound, [2-(6-fluoro-1H-indol-3-ylsulfanyl)benzyl]methyl amine L-(+)-hydrogen tatrate]?
induced locomotor activity (Male NMRI mice; Test compound 0.08 mg/kg and 0.4 mg/kg s.c. alone): no effect; baseline activity in saline pre-treated animals (Male NMRI mice; mice, Test compound 0.08 and 0.4 mg/kg combined with MDL 100907 0.3 mg/kg): significantly lowered; baseline activity (Male NMRI mice; mice): no significant effect; induced locomotor activity (Male Wistar rats; Test compound 0.4 mg/kg combined with MDL 100907 0.3 mg/kg): significant attenuation; induced locomotor activity (Male Wistar rats; Test compound 0.4 mg/kg s.c. alone): tendency to increase the locomotor activity induced activity, but not significantly; baseline activity (Male Wistar rats): no effect; numbers of marbles buried (Male BALB/cByJ mice): significantly and equivalently reduced

For `CNCc1ccccc1Sc1c[nH]c2cc(F)ccc12.O=C(O)C(O)C(O)C(=O)O` [beta form of the L(+) hydrogen tartrate salt] [[2-(6-Fluoro-1H-indol-3-ylsulfanyl)-benzyl]-methyl-amine L-(+)-hydrogen tartrate], which “water absorbed when exposed to high relative humidity” value is on record?
The value was “about 0.6%”.

With `CNC1=Nc2ccc(Cl)cc2C(c2ccccc2)=[N+]([O-])C1` [CDP, chlordiazepoxide, reference compound] as the molecule, how does the “stress-induced hyperthermia (T2−T1)” value (Male C57B1/6 mice) read?
The value was “significantly reduced”.

Which induced locomotor activity (Male NMRI mice; MDL 100907 0.3 mg/kg) does the source give for `COc1cccc([C@H](O)C2CCN(CCc3ccc(F)cc3)CC2)c1OC` [MDL 100907, [R-(+)-a-(2,3-dimethoxyphenyl)-1-[2-(4-fluorophenylethyl)]-4-piperidinemethanol], reference compound] here?
Its induced locomotor activity is “significantly decreased”.

And the baseline activity (Male NMRI mice; mice)?
The baseline activity was “no significant effect”.

And the induced locomotor activity (Male Wistar rats; MDL 100907 0.3 mg/kg)?
Its induced locomotor activity is “significantly reversed”.

What about the baseline activity (Male Wistar rats) of the same molecule?
Its baseline activity is “no effect”.

For `CNCc1ccccc1Sc1c[nH]c2cc(F)ccc12.O=C(O)C(O)C(O)C(=O)O` [alpha form of the L(+) hydrogen tartrate salt] [[2-(6-Fluoro-1H-indol-3-ylsulfanyl)-benzyl]-methyl-amine L-(+)-hydrogen tartrate], which “water absorbed when exposed to high relative humidity” value is on record?
The value was less than 0.1%.
